Assay results as given in patent US20240016938A1, “METHODS FOR INCREASING THE BIOAVAILABILITY OF NUCLEOSIDE MEDICINAL AGENTS” (ZOGENIX MDS, INC., priority 2022, published 2024).

Assay: Pooled population PK analysis of dC and dT (five studies: healthy volunteers, renal impairment, TK2d participants)
Conditions: human, in vivo
Procedure: A phase 2 study was conducted as an open-label continuation of treatment with MT1621 in participants with TK2designed to evaluate the safety, tolerability, and PK of MT1621 (fixed dose combination of dC and dT supplied in a single packet). The study enrolled forty-seven (47) participants. After enrollment, participants transitioned from their current chemical grade 2′-deoxycytidine monophosphate/2′-deoxythymidine monophosphate (dCMP/dTMP) to deoxycytidine and deoxythymidine, or continued the use of deoxycytidine and deoxythymidine. Upon enrollment, participants who were on a stable maintenance dose of 400 mg/kg/day were treated with the same dose of deoxycytidine and deoxythymidine three-times daily (TID). Study participants who were on a total dose <400 mg/kg/day were transitioned to either 260 mg/kg/day (130 mg/kg/day of deoxycytidine and 130 mg/kg/day of deoxythymidine) TID, 520 mg/kg/day (260 mg/kg/day of deoxycytidine and 260 mg/kg/day of deoxythymidine) TID, or 800 mg/kg/day (400 mg/kg/day of deoxycytidine and 400 mg/kg/day of deoxythymidine) TID, depending on which was closest to the participants' previous dose.
The early protocol for deoxycytidine and deoxythymidine administration was for the participants to take the drug product without regard to food. […] Later in the program, when an unexpected effect of food on PK was noted, the protocol was amended to instruct the participants to take the drug product with food. By then, planned PK samples had been taken in a majority of the participants. A total of 3 blood samples were collected from each individual following study Day 1 to measure dC plasma concentrations. Sparse PK blood sampling and PD endpoint collection was conducted according to the following schedule: at Month 1 sampled 0.5, 1, 2, or 3 hours post-dose; and at Month 3 sampled 8, 10, 12, or 14 hours post-dose. During sampling, it was noted whether food was consumed from 1 hour pre-dose to 2 hours post-dose. And, the lower limit of quantification (LLOQ) was 0.5 ng/mL for both dC and dT.
For the calculation of the PK parameters, raw (unadjusted) plasma dC and dT concentrations below the limit of quantitation (BLQ) were set to 1% the limit of quantitation (LOQ) of the assay. […] Since all participants had measurable pre-dose concentrations, Kel and associated PK parameters were not calculated for unadjusted data.
Analysis of the PK data pooled from five (5) studies (including those described in Examples 1 and 2) comprising three (3) Phase 1 studies in healthy volunteers (HV) and two (2) open-label Phase 2 studies that included both adult and pediatric study participants with TK2d. A total of 119 study participants were included, which consisted of 44 healthy study participants, 16 study participants with renal impairment (moderate or severe), and 59 participants with TK2d that included participants aged from 0.9 years to 75.6 year of age.
Pooled population PK analysis confirmed that the fed state was a statistically significant covariate of the PK of dC including the TK2 deficient participants. Table 6 reflects analysis of all dC PK data including those for TK2 deficient participants. […] This is the pertinent value to estimate food effect on dC exposures. […] The decrease in the rate of dC absorption with food (parameter Ka in Table 6) is believed to be due to slower gastric/intestinal motility in the fed state. It is likely that the effect of food on dT concentration in participants with TK2 deficiency was masked by the high variability and limited PK sampling.

Structure (SMILES): Cc1cn([C@H]2C[C@H](O)[C@@H](CO)O2)c(=O)[nH]c1=O [dT, β-D-2′-deoxythymidine]
- F lower in healthy volunteers compared to TK2 deficient participants: 70-90%
- bioavailability: ~83%
- decrease of F in Latino/Hispanic population: ~50%
- decrease of absorption rate constant from first input compartment (K12) with high-fat content meal: ~80%
- decrease of lag time from second input compartment (ALAG3) with high-fat content meal: ~80%
- dose proportionality of exposures following single ascending doses: more than dose proportional
- endogenous baseline across studies: 0.220 to 1.14 ng/mL
- increase of F with a high-fat content meal: ~120%

Structure (SMILES): Nc1ccn([C@H]2C[C@H](O)[C@@H](CO)O2)c(=O)n1 [dC, β-D-2′-deoxycytidine]
- CL/F, apparent clearance: Bootstrap Median [2.5th-97.5th percentile]: 392000 (318000, 492000) L/h
- CL/F, apparent clearance: NONMEM Estimate (% RSE): 392000 (11.0%) L/h
- IIV on BSL: Bootstrap Median [2.5th-97.5th percentile]: 26.9% (19.4%, 35.3%)
- IIV on BSL: NONMEM Estimate (% RSE): 27.3% (15.0%) CV %
- IIV on CL/F: Bootstrap Median [2.5th-97.5th percentile]: 60.3% (36.2%, 82.3%)
- IIV on CL/F: NONMEM Estimate (% RSE): 61.6% (18.0%) CV%
- IIV on F: Bootstrap Median [2.5th-97.5th percentile]: 73.3% (37.8%, 102%)
- IIV on F: NONMEM Estimate (% RSE): 75.1% (19.8%) CV %
- IIV on Ka: Bootstrap Median [2.5th-97.5th percentile]: 62.6% (36.1%, 81.8%)
- IIV on Ka: NONMEM Estimate (% RSE): 65.9% (13.6%) CV %
- IIV on V/F: Bootstrap Median [2.5th-97.5th percentile]: 77.9% (39.3%, 107%)
- IIV on V/F: NONMEM Estimate (% RSE): 77.3% (18.0%) CV %
- IOV on F: Bootstrap Median [2.5th-97.5th percentile]: 31.4% (26.3%, 37.9%)
- IOV on F: NONMEM Estimate (% RSE): 31.5% (8.01%) CV %
- Ka, absorption rate constant: Bootstrap Median [2.5th-97.5th percentile]: 0.465 (0.361, 0.638) h^−1
- Ka, absorption rate constant: NONMEM Estimate (% RSE): 0.466 (11.5%) h^−1
- Proportional RUV: Bootstrap Median [2.5th-97.5th percentile]: 17.4% (16.1%, 18.8%)
- Proportional RUV: NONMEM Estimate (% RSE): 17.5% (3.76%)
- V/F, apparent volume of distribution: NONMEM Estimate (% RSE): 284000 (19.9%) L
- Vd/F: 278000 L
- dC BSL, dC endogenous baseline level: Bootstrap Median [2.5th-97.5th percentile]: 3.45 (3.21, 3.65) ng/mL
- dC BSL, dC endogenous baseline level: NONMEM Estimate (% RSE): 3.45 (3.29%) ng/mL
- decrease of absorption rate constant (Ka) with food intake: ~44%
- difference in F between HV and TK2 deficient participants: No difference in F was detected
- endogenous baseline across studies and populations: the same across studies and populations
